Values quoted from earlier work in patent US20110171165A1 (priority 2008, published 2011).

Biological target: δ receptors (Cavia porcellus, UniProt A0A286XTF2)
Conditions: read-out: affinity for δ receptors; guinea-pig brain membranes

Sequence of δ receptors (A0A286XTF2 1-366): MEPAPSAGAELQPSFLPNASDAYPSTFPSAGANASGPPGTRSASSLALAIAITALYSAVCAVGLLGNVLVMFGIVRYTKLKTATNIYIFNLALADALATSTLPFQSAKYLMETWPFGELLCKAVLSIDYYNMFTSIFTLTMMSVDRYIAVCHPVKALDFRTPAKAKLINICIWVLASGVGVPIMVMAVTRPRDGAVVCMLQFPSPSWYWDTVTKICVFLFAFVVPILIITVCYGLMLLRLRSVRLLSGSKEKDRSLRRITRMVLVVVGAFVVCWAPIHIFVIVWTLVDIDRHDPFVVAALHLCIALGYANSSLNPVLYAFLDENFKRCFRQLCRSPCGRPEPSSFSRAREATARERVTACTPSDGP

SMILES: CSCC[C@H](NC(=O)[C@H](Cc1ccccc1)NC(=O)CNC(=O)CNC(=O)[C@@H](N)Cc1ccc(O)cc1)C(=O)O [OGF, Tyr-Gly-Gly-Phe-Met]
- Ki: 0.9 nM
